{
  "source": "patent US11542240B2",
  "about": "“STK19 inhibitors for treatment of cancer” (TRUSTEES OF BOSTON UNIVERSITY, priority 2018, dated 2023)",
  "assay_in_all_cases": "biochemical",
  "format_in_all_cases": "binding",
  "key": {"[1]": {"target": "panel of 468 diverse kinases (Homo sapiens, UniProt O00444)", "details": "PLK4; 1000 nM; read-out: Percent Control"}, "[2]": {"target": "panel of 468 diverse kinases (Homo sapiens, UniProt O14936)", "details": "CASK; 1000 nM; read-out: Percent Control"}, "[3]": {"target": "panel of 468 diverse kinases (Homo sapiens, UniProt O75582)", "details": "1000 nM, read-out: Percent Control"}, "[4]": {"target": "panel of 468 diverse kinases (Homo sapiens, UniProt O94768)", "details": "DRAK2; 1000 nM; read-out: Percent Control"}, "[5]": {"target": "panel of 468 diverse kinases (Homo sapiens, UniProt O95747)", "sequence (O95747 2-527 limits assumed)": "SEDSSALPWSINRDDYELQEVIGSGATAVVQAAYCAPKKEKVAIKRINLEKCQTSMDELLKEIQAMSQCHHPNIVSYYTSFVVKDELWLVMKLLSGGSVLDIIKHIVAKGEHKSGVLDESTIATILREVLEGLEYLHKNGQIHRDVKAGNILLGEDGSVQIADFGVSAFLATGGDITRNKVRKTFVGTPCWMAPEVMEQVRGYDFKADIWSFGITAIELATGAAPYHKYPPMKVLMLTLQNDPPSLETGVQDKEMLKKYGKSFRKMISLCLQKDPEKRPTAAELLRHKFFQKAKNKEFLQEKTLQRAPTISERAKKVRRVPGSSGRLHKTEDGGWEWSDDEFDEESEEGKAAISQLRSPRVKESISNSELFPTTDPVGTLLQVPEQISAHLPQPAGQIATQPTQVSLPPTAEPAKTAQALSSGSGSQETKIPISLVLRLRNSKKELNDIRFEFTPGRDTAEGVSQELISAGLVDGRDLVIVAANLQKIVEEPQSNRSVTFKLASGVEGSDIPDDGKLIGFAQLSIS", "details": "OSR1; 1000 nM; read-out: Percent Control"}, "[6]": {"target": "panel of 468 diverse kinases (Homo sapiens, UniProt O95819)", "details": "MAP4K4; 1000 nM; read-out: Percent Control"}, "[7]": {"target": "panel of 468 diverse kinases (Homo sapiens, UniProt P00519, E255K)", "details": "ABL1(E255K)-phosphorylated; 1000 nM; read-out: Percent Control"}, "[8]": {"target": "panel of 468 diverse kinases (Homo sapiens, UniProt P00519, F317I)", "details": "1000 nM, read-out: Percent Control"}, "[9]": {"target": "panel of 468 diverse kinases (Homo sapiens, UniProt P00519, Y253F)", "details": "ABL1(Y253F)-phosphorylated; 1000 nM; read-out: Percent Control"}, "[10]": {"target": "panel of 468 diverse kinases (Homo sapiens, UniProt P0C1S8)", "details": "WEE2; 1000 nM; read-out: Percent Control"}, "[11]": {"target": "panel of 468 diverse kinases (Homo sapiens, UniProt P16591)", "details": "FER; 1000 nM; read-out: Percent Control"}, "[12]": {"target": "panel of 468 diverse kinases (Homo sapiens, UniProt P19525)", "sequence (P19525 2-551 limits assumed)": "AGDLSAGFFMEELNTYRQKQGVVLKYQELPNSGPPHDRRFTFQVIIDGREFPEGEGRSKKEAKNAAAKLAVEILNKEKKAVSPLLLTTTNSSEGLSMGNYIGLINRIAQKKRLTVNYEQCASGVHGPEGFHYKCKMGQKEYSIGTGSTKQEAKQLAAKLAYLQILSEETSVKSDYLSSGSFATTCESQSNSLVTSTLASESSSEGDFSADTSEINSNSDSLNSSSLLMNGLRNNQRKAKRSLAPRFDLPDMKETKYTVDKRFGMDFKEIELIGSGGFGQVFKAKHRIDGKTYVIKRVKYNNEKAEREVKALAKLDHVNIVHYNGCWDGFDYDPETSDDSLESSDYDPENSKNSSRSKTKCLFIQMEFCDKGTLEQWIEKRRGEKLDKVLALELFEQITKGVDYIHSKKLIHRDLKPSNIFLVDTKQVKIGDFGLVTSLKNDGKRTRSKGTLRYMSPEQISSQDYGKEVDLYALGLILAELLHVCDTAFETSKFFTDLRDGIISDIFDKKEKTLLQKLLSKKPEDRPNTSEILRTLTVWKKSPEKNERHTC", "details": "PRKR; 1000 nM; read-out: Percent Control"}, "[13]": {"target": "panel of 468 diverse kinases (Homo sapiens, UniProt P29320)", "sequence (P29320 21-983 limits assumed)": "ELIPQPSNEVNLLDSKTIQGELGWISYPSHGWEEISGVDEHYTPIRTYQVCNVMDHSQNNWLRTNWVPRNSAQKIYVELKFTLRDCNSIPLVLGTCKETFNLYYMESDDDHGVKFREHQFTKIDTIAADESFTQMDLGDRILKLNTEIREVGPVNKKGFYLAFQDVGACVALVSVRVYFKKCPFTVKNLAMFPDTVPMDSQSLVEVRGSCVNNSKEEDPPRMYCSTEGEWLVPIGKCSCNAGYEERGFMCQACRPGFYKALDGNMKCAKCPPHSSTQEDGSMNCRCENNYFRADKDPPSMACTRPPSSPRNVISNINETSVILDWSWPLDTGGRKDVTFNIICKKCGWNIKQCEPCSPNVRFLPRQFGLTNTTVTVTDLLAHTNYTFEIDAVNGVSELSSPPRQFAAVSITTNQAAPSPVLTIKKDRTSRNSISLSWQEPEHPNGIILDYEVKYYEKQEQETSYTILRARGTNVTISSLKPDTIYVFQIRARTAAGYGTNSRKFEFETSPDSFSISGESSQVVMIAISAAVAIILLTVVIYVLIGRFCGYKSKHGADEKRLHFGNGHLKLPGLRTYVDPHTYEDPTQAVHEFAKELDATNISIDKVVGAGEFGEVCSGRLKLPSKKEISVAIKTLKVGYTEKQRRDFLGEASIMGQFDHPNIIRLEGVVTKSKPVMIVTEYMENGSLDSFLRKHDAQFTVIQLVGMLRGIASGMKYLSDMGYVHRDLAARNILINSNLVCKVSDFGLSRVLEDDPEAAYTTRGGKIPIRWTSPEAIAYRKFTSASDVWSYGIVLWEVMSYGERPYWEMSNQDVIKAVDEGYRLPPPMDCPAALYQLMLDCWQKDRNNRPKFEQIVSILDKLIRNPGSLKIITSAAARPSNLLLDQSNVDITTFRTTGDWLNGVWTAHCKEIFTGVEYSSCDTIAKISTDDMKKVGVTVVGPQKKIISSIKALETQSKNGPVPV", "details": "EPHA3; 1000 nM; read-out: Percent Control"}, "[14]": {"target": "panel of 468 diverse kinases (Homo sapiens, UniProt P29322)", "sequence (P29322 28-1005 limits assumed)": "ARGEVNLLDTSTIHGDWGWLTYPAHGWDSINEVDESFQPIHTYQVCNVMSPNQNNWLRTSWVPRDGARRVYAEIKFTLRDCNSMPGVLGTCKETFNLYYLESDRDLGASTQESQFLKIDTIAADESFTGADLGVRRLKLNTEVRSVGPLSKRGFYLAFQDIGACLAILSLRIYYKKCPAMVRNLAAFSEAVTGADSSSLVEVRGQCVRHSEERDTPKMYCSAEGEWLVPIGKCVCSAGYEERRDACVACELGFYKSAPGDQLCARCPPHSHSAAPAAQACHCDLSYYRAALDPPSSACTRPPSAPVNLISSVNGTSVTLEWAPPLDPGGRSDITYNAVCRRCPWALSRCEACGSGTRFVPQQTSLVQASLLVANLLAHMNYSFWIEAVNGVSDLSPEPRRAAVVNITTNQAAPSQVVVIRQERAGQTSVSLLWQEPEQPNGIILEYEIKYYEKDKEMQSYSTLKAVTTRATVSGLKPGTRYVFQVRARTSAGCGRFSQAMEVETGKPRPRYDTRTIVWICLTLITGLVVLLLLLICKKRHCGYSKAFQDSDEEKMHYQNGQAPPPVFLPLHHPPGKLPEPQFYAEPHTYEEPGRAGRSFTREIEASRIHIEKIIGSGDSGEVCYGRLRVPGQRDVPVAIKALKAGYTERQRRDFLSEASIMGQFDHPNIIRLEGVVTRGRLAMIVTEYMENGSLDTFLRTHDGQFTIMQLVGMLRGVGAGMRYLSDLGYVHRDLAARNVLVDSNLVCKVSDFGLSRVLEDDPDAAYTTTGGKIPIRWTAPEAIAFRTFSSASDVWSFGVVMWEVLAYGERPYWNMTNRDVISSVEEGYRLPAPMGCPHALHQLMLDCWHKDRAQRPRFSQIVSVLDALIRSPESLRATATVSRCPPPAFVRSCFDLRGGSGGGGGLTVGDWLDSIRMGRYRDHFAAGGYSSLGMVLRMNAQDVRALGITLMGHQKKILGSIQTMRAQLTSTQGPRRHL", "details": "EPHA8; 1000 nM; read-out: Percent Control"}, "[15]": {"target": "panel of 468 diverse kinases (Homo sapiens, UniProt P35968)", "sequence (P35968 20-1356 limits assumed)": "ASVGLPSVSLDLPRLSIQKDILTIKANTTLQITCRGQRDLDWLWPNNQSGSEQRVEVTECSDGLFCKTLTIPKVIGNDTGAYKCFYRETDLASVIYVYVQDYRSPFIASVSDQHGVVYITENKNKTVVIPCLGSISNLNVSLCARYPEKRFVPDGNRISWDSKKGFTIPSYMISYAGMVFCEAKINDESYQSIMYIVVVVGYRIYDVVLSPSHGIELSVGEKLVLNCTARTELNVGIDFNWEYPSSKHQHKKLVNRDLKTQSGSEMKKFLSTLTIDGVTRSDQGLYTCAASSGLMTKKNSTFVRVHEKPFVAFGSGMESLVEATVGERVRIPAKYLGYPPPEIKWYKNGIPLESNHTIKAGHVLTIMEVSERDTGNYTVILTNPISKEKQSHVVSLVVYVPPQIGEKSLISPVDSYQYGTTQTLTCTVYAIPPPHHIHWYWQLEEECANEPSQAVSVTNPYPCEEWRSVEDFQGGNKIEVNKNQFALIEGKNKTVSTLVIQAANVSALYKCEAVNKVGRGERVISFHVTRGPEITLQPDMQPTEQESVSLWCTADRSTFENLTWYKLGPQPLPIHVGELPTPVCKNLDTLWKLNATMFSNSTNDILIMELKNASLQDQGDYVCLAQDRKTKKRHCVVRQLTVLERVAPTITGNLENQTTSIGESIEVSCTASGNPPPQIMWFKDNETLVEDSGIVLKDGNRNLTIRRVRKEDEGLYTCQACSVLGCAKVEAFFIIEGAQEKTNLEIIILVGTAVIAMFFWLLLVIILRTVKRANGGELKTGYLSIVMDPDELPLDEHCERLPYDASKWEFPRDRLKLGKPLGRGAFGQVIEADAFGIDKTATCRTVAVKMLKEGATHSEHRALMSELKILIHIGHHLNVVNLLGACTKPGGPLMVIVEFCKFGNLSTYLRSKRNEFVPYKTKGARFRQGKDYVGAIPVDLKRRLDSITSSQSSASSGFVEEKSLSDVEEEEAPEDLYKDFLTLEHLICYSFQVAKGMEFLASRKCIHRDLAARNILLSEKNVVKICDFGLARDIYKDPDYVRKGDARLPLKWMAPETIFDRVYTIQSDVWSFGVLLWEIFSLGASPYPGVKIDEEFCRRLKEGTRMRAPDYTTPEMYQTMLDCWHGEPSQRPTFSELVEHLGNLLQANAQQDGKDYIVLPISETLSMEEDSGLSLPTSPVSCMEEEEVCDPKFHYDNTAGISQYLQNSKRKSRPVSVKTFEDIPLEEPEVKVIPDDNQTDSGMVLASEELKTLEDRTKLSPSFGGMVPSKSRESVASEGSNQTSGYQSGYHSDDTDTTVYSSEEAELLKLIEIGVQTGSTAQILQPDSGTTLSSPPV", "details": "VEGFR2; 1000 nM; read-out: Percent Control"}, "[16]": {"target": "panel of 468 diverse kinases (Homo sapiens, UniProt P42679)", "details": "CTK; 1000 nM; read-out: Percent Control"}, "[17]": {"target": "panel of 468 diverse kinases (Homo sapiens, UniProt P42680)", "details": "TEC; 1000 nM; read-out: Percent Control"}, "[18]": {"target": "panel of 468 diverse kinases (Homo sapiens, UniProt P49674)", "details": "CSNK1E; 1000 nM; read-out: Percent Control"}, "[19]": {"target": "panel of 468 diverse kinases (Homo sapiens, UniProt P49841)", "details": "GSK3B; 1000 nM; read-out: Percent Control"}, "[20]": {"target": "panel of 468 diverse kinases (Homo sapiens, UniProt P50613)", "details": "CDK7; 1000 nM; read-out: Percent Control"}, "[21]": {"target": "panel of 468 diverse kinases (Homo sapiens, UniProt P57059)", "details": "SIK; 1000 nM; read-out: Percent Control"}, "[22]": {"target": "panel of 468 diverse kinases (Homo sapiens, UniProt Q00526)", "details": "CDK3; 1000 nM; read-out: Percent Control"}, "[23]": {"target": "panel of 468 diverse kinases (Homo sapiens, UniProt Q07912)", "details": "TNK2; 1000 nM; read-out: Percent Control"}, "[24]": {"target": "panel of 468 diverse kinases (Homo sapiens, UniProt Q14012)", "details": "CAMK1; 1000 nM; read-out: Percent Control"}, "[25]": {"target": "panel of 468 diverse kinases (Homo sapiens, UniProt Q5VT25)", "details": "MRCKA; 1000 nM; read-out: Percent Control"}, "[26]": {"target": "panel of 468 diverse kinases (Homo sapiens, UniProt Q96RR4)", "sequence (Q96RR4 2-588 limits assumed)": "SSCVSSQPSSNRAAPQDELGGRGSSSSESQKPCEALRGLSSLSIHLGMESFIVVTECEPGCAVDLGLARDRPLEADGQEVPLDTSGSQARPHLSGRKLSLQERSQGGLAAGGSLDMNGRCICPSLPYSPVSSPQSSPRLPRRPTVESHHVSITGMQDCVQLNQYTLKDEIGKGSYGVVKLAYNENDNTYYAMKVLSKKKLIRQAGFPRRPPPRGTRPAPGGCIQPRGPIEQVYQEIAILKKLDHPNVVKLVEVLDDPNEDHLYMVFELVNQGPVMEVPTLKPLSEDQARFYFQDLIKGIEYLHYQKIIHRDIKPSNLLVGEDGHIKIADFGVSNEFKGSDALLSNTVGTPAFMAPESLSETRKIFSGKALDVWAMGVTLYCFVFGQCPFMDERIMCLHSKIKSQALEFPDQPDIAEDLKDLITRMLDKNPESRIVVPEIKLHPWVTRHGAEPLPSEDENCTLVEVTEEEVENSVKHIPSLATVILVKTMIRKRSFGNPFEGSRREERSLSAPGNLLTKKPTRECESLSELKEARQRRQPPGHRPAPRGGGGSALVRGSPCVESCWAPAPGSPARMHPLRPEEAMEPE", "details": "CAMKK2; 1000 nM; read-out: Percent Control"}, "[27]": {"target": "panel of 468 diverse kinases (Homo sapiens, UniProt Q9H2X6)", "details": "HIPK2; 1000 nM; read-out: Percent Control"}, "[28]": {"target": "panel of 468 diverse kinases (Homo sapiens, UniProt Q9UBE8)", "details": "NLK; 1000 nM; read-out: Percent Control"}, "[29]": {"target": "panel of 468 diverse kinases (Homo sapiens, UniProt Q9Y3S1)", "details": "WNK2; 1000 nM; read-out: Percent Control"}, "[30]": {"target": "panel of 468 diverse kinases (Homo sapiens, UniProt Q9Y5S2)", "details": "MRCKB; 1000 nM; read-out: Percent Control"}, "[31]": {"target": "panel of 468 diverse kinases (Homo sapiens, UniProt Q9Y6E0)", "details": "MST3; 1000 nM; read-out: Percent Control"}},
  "note": "Like-named read-outs stand apart in the source and are kept apart here.",
  "data": [
    {"compound": "COc1cc2nc(NC3CC3)nc(NC3CCN(C(C)C)CC3)c2cc1OC", "note": "[Formula IV]", "values": [
      {"measurement": "remaining activity at 1 µM", "setting": "[1]", "value": 58, "unit": "%"},
      {"measurement": "remaining activity at 1 µM", "setting": "[2]", "value": 60, "unit": "%"},
      {"measurement": "remaining activity at 1 µM", "setting": "[3]; RPS6KA5(Kin.Dom.1-N-terminal)", "value": 75, "unit": "%"},
      {"measurement": "remaining activity at 1 µM", "setting": "[3]; RPS6KA5(Kin.Dom.2-C-terminal)", "value": 100, "unit": "%"},
      {"measurement": "remaining activity at 1 µM", "setting": "[4]", "value": 79, "unit": "%"},
      {"measurement": "remaining activity at 1 µM", "setting": "[5]", "value": 73, "unit": "%"},
      {"measurement": "remaining activity at 1 µM", "setting": "[6]", "value": 100, "unit": "%"},
      {"measurement": "remaining activity at 1 µM", "setting": "[7]", "value": 89, "unit": "%"},
      {"measurement": "remaining activity at 1 µM", "setting": "[8]; ABL1(F317I)-nonphosphorylated", "value": 85, "unit": "%"},
      {"measurement": "remaining activity at 1 µM", "setting": "[8]; ABL1(F317I)-pho sphorylated", "value": 90, "unit": "%"},
      {"measurement": "remaining activity at 1 µM", "setting": "[9]", "value": 100, "unit": "%"},
      {"measurement": "remaining activity at 1 µM", "setting": "[10]", "value": 96, "unit": "%"},
      {"measurement": "remaining activity at 1 µM", "setting": "[11]", "value": 90, "unit": "%"},
      {"measurement": "remaining activity at 1 µM", "setting": "[12]", "value": 99, "unit": "%"},
      {"measurement": "remaining activity at 1 µM", "setting": "[13]", "value": 93, "unit": "%"},
      {"measurement": "remaining activity at 1 µM", "setting": "[14]", "value": 93, "unit": "%"},
      {"measurement": "remaining activity at 1 µM", "setting": "[15]", "value": 45, "unit": "%"},
      {"measurement": "remaining activity at 1 µM", "setting": "[16]", "value": 32, "unit": "%"},
      {"measurement": "remaining activity at 1 µM", "setting": "[17]", "value": 100, "unit": "%"},
      {"measurement": "remaining activity at 1 µM", "setting": "[18]", "value": 100, "unit": "%"},
      {"measurement": "remaining activity at 1 µM", "setting": "[19]", "value": 72, "unit": "%"},
      {"measurement": "remaining activity at 1 µM", "setting": "[20]", "value": 69, "unit": "%"},
      {"measurement": "remaining activity at 1 µM", "setting": "[21]", "value": 81, "unit": "%"},
      {"measurement": "remaining activity at 1 µM", "setting": "[22]", "value": 100, "unit": "%"},
      {"measurement": "remaining activity at 1 µM", "setting": "[23]", "value": 100, "unit": "%"},
      {"measurement": "remaining activity at 1 µM", "setting": "[24]", "value": 91, "unit": "%"},
      {"measurement": "remaining activity at 1 µM", "setting": "[25]", "value": 100, "unit": "%"},
      {"measurement": "remaining activity at 1 µM", "setting": "[26]", "value": 100, "unit": "%"},
      {"measurement": "remaining activity at 1 µM", "setting": "[27]", "value": 64, "unit": "%"},
      {"measurement": "remaining activity at 1 µM", "setting": "[28]", "value": 100, "unit": "%"},
      {"measurement": "remaining activity at 1 µM", "setting": "[29]", "value": 58, "unit": "%"},
      {"measurement": "remaining activity at 1 µM", "setting": "[30]", "value": 92, "unit": "%"},
      {"measurement": "remaining activity at 1 µM", "setting": "[31]", "value": 96, "unit": "%"}
    ]}
  ]
}
